In experiment [1] the target is T1, human platelet PDE5 (Homo sapiens, UniProt O76074).
T1 construct: utilizes PDE5 isolated from human platelets; from tissue; host or cells: human platelets
Put plainly: Method B: PDE-5 Inhibition Scintillation Proximity Assay (SPA) - Human Platelet (modified protocol of Method A). The class given is biochemical. The note with it: cGMP substrate 50 nM, PDE5 isolated from human platelets. The procedure: Method B: PDE-5 Inhibition Scintillation Proximity Assay (SPA)—Human Platelet
This method is a modified protocol of Method A.
(§1) The assay measures the inhibition of human platelet PDE5 enzyme activity by a test compound in an in vitro assay that utilizes PDE5 isolated from human platelets. PDE5 catalyzes the hydrolysis of [^3H]cGMP to the 5′ nucleotide [^3H]GMP. [^3H]GMP binds to yttrium silicate SPA beads and is detected by scintillation counting. The inhibition of enzyme activity is calculated relative to total PDE5 activity of uninhibited controls.
(§2) PDE5 IC50 Assay: 96-Well Microtiter Plate Format
(§3) Buffer A: 20 mM Tris-HCl, 5 mM MgCl2, pH 7.4
(§4) Buffer B: 2 mg/ml BSA in Buffer A (enzyme buffer)
cGMP substrate: Final concentration of 50 nM in assay
The amount of ^3H-labeled substrate added depends upon the specific activity of [^3H]cGMP, and it is diluted in Buffer A.
(§5) PDE enzyme: Prepared in Buffer B. The dilution factor is determined by enzyme activity.
SPA beads: 4 mg/ml suspension prepared in dH2O.
Stocks of standard and test compounds are prepared at 2 mM in 100% DMSO. Compounds are serially diluted in separate dilution plates using an 8-point ⅕ log dilution format such that the starting concentration in the assay is 2 μM for an initial IC50 screen. 27 μl of Buffer A are added to the wells of the assay plates. From the dilution plates, 3 μl of diluted compounds are delivered in duplicate or 3 μl of 100% DMSO (for positive and negative controls) are added. 30 μl of enzyme are added. For the negative control wells, Buffer B is substituted in place of the enzyme. 30 μl of labeled substrate are added to all wells.
After incubating for 60 minutes at room temperature, the reaction is stopped with the addition of 30 μl of the yttrium silicate beads. These beads are dense and require constant agitation while being added to the plate. The plates are sealed and shaken on a plate shaker for fifteen minutes to allow the beads to bind the GMP product.
After allowing the beads to settle for 30 minutes, plates are read on a NXT TopCount and data is analyzed in the Bioassay Solver application. Percent inhibition values are calculated using the means of the 0% and 100% controls on each plate. The estimates of the 4-parameters of the logistic, sigmoid dose-response model are then calculated using the well-level percent inhibition values for each compound. These estimates are used to calculate the concentration that corresponds to 50% inhibition.
(In a scintillation proximity assay essentially only radioactivity close to the scintillant gives light.)

Experiment [2] addresses T1, human platelet PDE5. In words: Method A: PDE-5 Inhibition Scintillation Proximity Assay (SPA) - Human Platelet. The class given is biochemical. The settings on record: cGMP substrate 500 nM, PDE5 isolated from human platelets.
From the text: Method A: PDE-5 Inhibition Scintillation Proximity Assay (SPA)—Human Platelet
as §1, with “platelets. The PDE5 enzyme can be isolated from platelets essentially by a modification of the method of Thompson, W J et al.; Biochemistry 18(23), 5228-5237, 1979, as described by Ballard S A et al.; J. Urology 159(6), 2164-2171, 1998.” for “platelets.”, “counting. […]” for “counting.”
as §2, §3, §4
cGMP substrate: Final concentration of 500 nM in assay
The amount of ^3H-labeled substrate added depends upon the specific activity of [^3H]cGMP, and it is diluted with a 10 mM stock of cold cGMP in Buffer A for a final substrate concentration of 500 nM in the assay.
as §5
SPA beads: 20 mg/ml suspension prepared in dH2O.
Stocks of standard and test compounds are prepared at 5 mM in 100% DMSO. Compounds are serially diluted in separate dilution plates using a 10-point ½ log dilution format. 2 μl of the compound dilutions are added in duplicate to the wells of the assay plate; 2 μl of 100% DMSO are added to designated control wells. 25 μl of Buffer A are added to all wells. 25 μl of Buffer B are added to the negative control wells, and 25 μl of enzyme are added to the remaining wells. 50 μl of substrate are added to each well. Plates are sealed and incubated for 60 minutes on a plate shaker at 30 C. 50 μl of SPA beads are added to stop the reaction. The plates are again sealed and shaken for 15 minutes to allow the beads to bind the GMP product. The beads are allowed to settle for 30 minutes and then read on a NXT TopCount. Data is analyzed with the ECADA application. In this analysis, % inhibition is calculated: (mean maximum−compound value/(mean maximum−mean minimum)×100. IC50s are determined from sigmoid dose-response curves of enzyme activity vs compound concentration.

Drawing on patent US7569572B2, “Pyrazolo[4,3-D]pyrimidines” (Pfizer Inc, priority 2004, dated 2009), this text covers IC50 for twelve molecules.

Counter-ions that a name gives are not always drawn.

Broadly, the IC50 is the concentration at which inhibition is half-maximal. Low readings indicate greater potency, high ones weaker potency. As for `C[C@@H]1CN(c2nc(Nc3ccncn3)c3c(n2)c(CN2CCCCC2)nn3CCOCC(F)(F)F)CCN1` [Example 45, 5-[(3R)-3-Methylpiperazin-1-yl]-3-(piperidin-1-ylmethyl)-N-pyrimidin-4-yl-1-[2-(2,2,2-trifluoroethoxy)ethyl]-1H-pyrazolo[4,3-d]pyrimidin-7-amine trifluoroacetate], the 50% inhibitory concentration (IC50) at human platelet PDE5 [1] was determined as 1.25 nM.
For the molecule `FC(F)(F)COCCn1nc(CN2CCOCC2)c2nc(N3CCNCC3)nc(Nc3ccncn3)c21` [Example 43, 3-(Morpholin-4-ylmethyl)-5-piperazin-1-yl-N-pyrimidin-4-yl-1-[2-(2,2,2-trifluoroethoxy)ethyl]-1H-Pyrazolo[4,3-d]pyrimidin-7-amine trifluoroacetate], on human platelet PDE5 [1], half-maximal inhibition (IC50) required 0.21 nM.
Regarding `C[C@@H]1CN(c2nc(Nc3ccncn3)c3c(n2)c(CN2CCSCC2)nn3CCOCC(F)(F)F)CCN1` [Example 46, 5-[(3R)-3-methylpiperazin-1-yl]-N-pyrimidin-4-yl-3-(thiomorpholin-4-ylmethyl)-1-[2-(2,2,2-trifluoroethoxy)ethyl]-1H-pyrazolo[4,3-d]pyrimidin-7-amine trifluoroacetate], the midpoint of inhibition against human platelet PDE5 [1], the IC50, lay at 0.14 nM.
The same measure, in the same setting: the same measure for `C[C@@H]1CN(c2nc(Nc3ccncn3)c3c(n2)c(CN2CCN(C)CC2)nn3CCOCC(F)(F)F)CCN1` [Example 47, 5-[(3R)-3-Methylpiperazin-1-yl]-3-[(4-methylpiperazin-1-yl)methyl]-N-pyrimidin-4-yl-1-[2-(2,2,2-trifluoroethoxy)ethyl]-1H-pyrazolo[4,3-d]pyrimidin-7-amine trifluoroacetate]: 0.47 nM; for `C[C@@H]1CN(c2nc(Nc3ccncn3)c3c(n2)c(CN2CCOCC2)nn3CCOCC(F)(F)F)CCN1` [Example 42, 5-[(3R)-3-Methylpiperazin-1-yl]-3-(morpholin-4-ylmethyl)-N-pyrimidin-4-yl-1-[2-(2,2,2-trifluoroethoxy)ethyl]-1H-pyrazolo[4,3-d]pyrimidin-7-amine trifluoroacetate]: 0.32 nM.
Same read-out and setting: the same measure for `CCN(CC)Cc1nn(CCOCC(F)(F)F)c2c(Nc3ccncn3)nc(N(CC)CC)nc12` [Example 48, 3-[(Diethylamino)methyl]-N^5,N^5-diethyl-N^7-pyrimidin-4-yl-1-[2-(2,2,2-trifluoroethoxy)ethyl]-1H-pyrazolo[4,3-d]pyrimidine-5,7-diamine trifluoroacetate]: 7.39 nM; for `FC(F)(F)CNCc1nn(CCOCC(F)(F)F)c2c(Nc3ccncn3)nc(N3CCNCC3)nc12` [Example 50, 1-(2-(2,2,2-trifluoroethoxy)ethyl)-3-((2,2,2-trifluoroethylamino)methyl)-5-(piperazin-1-yl)-N-(pyrimidin-4-yl)-1H-pyrazolo[4,3-d]pyrimidin-7-amine trifluoroacetate]: 1.06 nM.
Consider `CCN(C)c1nc(Nc2ccncn2)c2c(n1)c(CN1CCSCC1)nn2CCOCC(F)(F)F` [Example 44, N^5-Ethyl-N^5-methyl-N^7-pyrimidin-4-yl-3-(thiomorpholin-4-ylmethyl)-1-[2-(2,2,2-trifluoroethoxy)ethy]-1H-pyrazolo[4,3-d]pyrimidine-5,7-diamine trifluoroacetate], for which the half-inhibitory concentration (IC50) on human platelet PDE5 [1] stood at 0.79 nM.
On to `C[C@@H]1CN(c2nc(Nc3ccncn3)c3c(n2)c(CN2CCS(=O)(=O)CC2)nn3CCOCC(F)(F)F)CCN1` [Example 49, 3-[(1,1-Dioxidothiomorpholin-4-yl)methyl]-5-[(3R)-3-methylpiperazin-1-yl]-N-pyrimidin-4-yl-1-[2-(2,2,2-trifluoroethoxy)ethyl]-1H-pyrazolo[4,3-d]pyrimidin-7-amine trifluoroacetate], for which the half-maximal inhibitory concentration (IC50) on human platelet PDE5 [1] came to 0.58 nM.
Regarding `FC(F)(F)COCCn1nc(CN2CCNCC2)c2nc(N3CCNCC3)nc(Nc3ccncn3)c21` [Example 41, 5-Piperazin-1-yl-3-(piperazin-1-ylmethyl)-N-pyrimidin-4-yl-1-[2-(2,2,2-trifluoroethoxy)ethyl]-1H-pyrazolo[4,3-d]pyrimidin-7-amine trifluoroacetate], the 50% inhibitory concentration (IC50) against human platelet PDE5 [1] was 1.8 nM.
For `CCOCCn1nc(CN(CC)CC)c2nc(N(C)C)nc(Nc3ccncn3)c21` [Example 34, 3-(Diethylaminomethyl)-1-(2-ethoxyethyl)-N^5,N^5-dimethyl-N^7-(pyrimidin-4-yl)-1H-pyrazolo[4,3-d]pyrimidine-5,7-diamine], at human platelet PDE5 [2], the half-inhibitory concentration (IC50) came out at 23.6 nM.
`CCCNCc1nn(CCOCC)c2c(Nc3cc(C)ccn3)nc(N(C)C)nc12` [Example 24] yielded an IC50 at human platelet PDE5 [2] of 5.8 nM.
